Literature values in patent publication US9795689B2, “Crosslinked polymer nano-assemblies and uses thereof” (University of Massachusetts, priority 2012, dated 2017).

Compound: C=C(C)C(=O)OCCN(C(C)C)C(C)C [DPA, 2-(diisopropylamino)ethyl methacrylate]
- pKa of the protonated form of the amine: around 6.2
